Measurements reported in ChEMBL document CHEMBL1201862, “PubChem BioAssay data set” (2004).
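Test compounds were applied to cells in 96-well plates for 48 hours at 5 doses. At the GI50, growth is halved.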 Active and inactive are the calls of the source. Rule as the data show it: active = GI50 up to about 1.1 µM and inactive = higher.

Experiments:
Experiment in all cases: NCI-60 cell line screen, 48 h
CCRF-CEM = tested on: CCRF-CEM
HOP-92 = tested on: HOP-92
LOX IMVI = tested on: LOX IMVI
KM12 = tested on: KM12
RXF 393 = tested on: RXF 393
SK-MEL-28 = tested on: SK-MEL-28
NCI-H226 = tested on: NCI-H226
OVCAR-4 = tested on: OVCAR-4
HCT-15 = tested on: HCT-15
K562 = tested on: K562
U-251 = tested on: U-251
OVCAR-3 = tested on: OVCAR-3
IGROV-1 = tested on: IGROV-1
SR = tested on: SR
MOLT-4 = tested on: MOLT-4
UACC-62 = tested on: UACC-62
Malme-3M = tested on: Malme-3M
COLO 205 = tested on: COLO 205
SW-620 = tested on: SW-620
HCC 2998 = tested on: HCC 2998

| SMILES | GI50 (CCRF-CEM) | GI50 (HOP-92) | GI50 (LOX IMVI) | GI50 (KM12) | GI50 (RXF 393) | GI50 (SK-MEL-28) | GI50 (NCI-H226) | GI50 (OVCAR-4) | GI50 (HCT-15) | GI50 (K562) | GI50 (U-251) | GI50 (OVCAR-3) | GI50 (IGROV-1) | GI50 (SR) | GI50 (MOLT-4) | GI50 (UACC-62) | GI50 (Malme-3M) | GI50 (COLO 205) | GI50 (SW-620) | GI50 (HCC 2998) |
| --- | --- | --- | --- | --- | --- | --- | --- | --- | --- | --- | --- | --- | --- | --- | --- | --- | --- | --- | --- | --- |
| C=CCN1C(=O)/C(=C/c2ccccc2)N=C1SC1OC(COC(=O)c2ccccc2)C(OC(=O)c2ccccc2)C1OC(=O)c1ccccc1 (stereo not given) | 34.9 µM (inactive) | 60.5 µM (inactive) | 78.3 µM (inactive) | > 100 µM (inactive) | > 100 µM (inactive) | > 100 µM (inactive) | > 100 µM (inactive) | > 100 µM (inactive) | > 100 µM | 46.2 µM (inactive) | > 100 µM (inactive) | > 100 µM (inactive) | > 100 µM (inactive) | 64.3 µM (inactive) | > 100 µM (inactive) | 31.3 µM (inactive) | > 100 µM (inactive) | > 100 µM (inactive) | 79.8 µM (inactive) | > 100 µM (inactive) |
| Cc1cc(OCC(O)CO)ccc1Cl (stereo not given) | > 100 µM (inactive) | > 100 µM (inactive) | > 100 µM (inactive) | > 100 µM (inactive) | > 100 µM (inactive) | > 100 µM (inactive) | > 100 µM (inactive) | > 100 µM (inactive) | > 100 µM | > 100 µM (inactive) | > 100 µM (inactive) | > 100 µM (inactive) | > 100 µM (inactive) | 60.1 µM (inactive) | > 100 µM (inactive) | > 100 µM (inactive) | > 100 µM (inactive) | > 100 µM (inactive) | > 100 µM (inactive) | > 100 µM (inactive) |
| N#CCCN(CCC#N)c1ccc(/C=C2\N=C(c3cc([N+](=O)[O-])ccc3Cl)N(NC(=O)CC(=O)Nc3ccccc3Cl)C2=O)cc1 | > 100 µM (inactive) | > 100 µM (inactive) | > 100 µM (inactive) | > 100 µM (inactive) | > 100 µM (inactive) | > 100 µM (inactive) | 16.1 µM (inactive) | > 100 µM (inactive) | > 100 µM | > 100 µM (inactive) | > 100 µM (inactive) | > 100 µM (inactive) | > 100 µM (inactive) | > 100 µM (inactive) | > 100 µM (inactive) | > 100 µM (inactive) | > 100 µM (inactive) | > 100 µM (inactive) | > 100 µM (inactive) | > 100 µM (inactive) |
| CC/C(CC(=O)CCC(=O)Nc1ccc(C)c(C)c1)=N\NC(=O)c1cc2ccccc2cc1O | 5.2 µM (inactive) | 31.2 µM (inactive) | 16.1 µM (inactive) | 38.4 µM (inactive) | 15.1 µM (inactive) | 20.7 µM (inactive) | 13.4 µM (inactive) | 18.4 µM (inactive) | 13.9 µM | 21.8 µM (inactive) | 28.8 µM (inactive) | 18.6 µM (inactive) | 19 µM (inactive) | 18 µM (inactive) | 11.4 µM (inactive) | 14.6 µM (inactive) | 24.8 µM (inactive) | 37 µM (inactive) | 30.2 µM (inactive) | 18.4 µM (inactive) |
| COc1ccc(NC(=O)/C(=C/c2ccc(N(CCC#N)CCC#N)cc2)NC(=O)c2cc([N+](=O)[O-])ccc2Cl)cc1 | 71.6 µM (inactive) | > 100 µM (inactive) | 18.4 µM (inactive) | 68.2 µM (inactive) | > 100 µM (inactive) | 53.5 µM (inactive) | > 100 µM (inactive) | > 100 µM (inactive) | 4.62 µM | 6.76 µM (inactive) | > 100 µM (inactive) | 94.4 µM (inactive) | 65.9 µM (inactive) | 74.1 µM (inactive) | 83.8 µM (inactive) | 13.3 µM (inactive) | > 100 µM (inactive) | 59.8 µM (inactive) | 98.6 µM (inactive) | 45.8 µM (inactive) |
| COC(=N)C(C)C | > 100 µM (inactive) | > 100 µM (inactive) | > 100 µM (inactive) | > 100 µM (inactive) | > 100 µM (inactive) | > 100 µM (inactive) | > 100 µM (inactive) | > 100 µM (inactive) | > 100 µM | > 100 µM (inactive) | > 100 µM (inactive) | > 100 µM (inactive) | > 100 µM (inactive) | > 100 µM (inactive) | > 100 µM (inactive) | > 100 µM (inactive) | > 100 µM (inactive) | > 100 µM (inactive) | > 100 µM (inactive) | > 100 µM (inactive) |
